Here are results for two compounds from US20220110993A1, “COMPOSITIONS FOR TREATMENT OF JAW PAIN, TEMPOROMANDIBULAR JOINT AND MUSCLE DISORDER AND BRUXISM” (LAB-O Corp., priority 2020, published 2022).

For series [1] the following is noted: cited from earlier work.
Series [2] concerns normal skin. Nature of the series: Human Repeat Insult Patch Test (RIPT). It is filed as in vivo. The note with it: RIPT positive control. The protocol: The objective of the study was to determine irritation and sensitization potential of the composition as a test material after repeated application to skin. Contact sensitization was measured by treatment emergent adverse events (TEAE5), reaction grade and investigator assessment of irritation and sensitization. An informed consent was obtained from each volunteer prior to initiating the study. The consent form described reasons for the study, possible adverse effects, associated risks and potential benefits of the treatment and their limits of liability. […] The present composition was tested under occlusive conditions and placed on an 8-millimeter aluminum Finn Chamber (Epitest Ltd. Oy, Tuusula, Finland) supported on Scanpor Tape (Norgesplaster A/S, Kristiansand, Norway). Alternatively, an 8-mm filter paper coated aluminum Finn Chamber AQUA can be supported on a thin flexible transparent polyurethane rectangular film coated on one side with a medical grade acrylic adhesive, consistent with adhesive used in state-of-the-art hypoallergenic surgical tapes or a 7 mm IQ-ULTRA closed cell system. Such a closed cell system is made of additive-free polyethylene plastic foam with a filter paper incorporated (supplied in units of 10 chambers on a hypoallergenic non-woven adhesive tape having a width of 52 mm and a length of 118 mm) or other equivalents. […] Test materials to be tested in an open patch were applied and rubbed directly onto the back of the subject. Approximately 0.02-0.05 mL (in case of liquids) and/or 0.02-0.05 gm (in case of solids) of the test material was used for the study. Liquid test material was dispensed on a 7.5 mm paper disk, which fit in the Finn Chamber. The following procedure was applied: • 1. Subjects were requested to bathe or wash as usual before arrival at the facility. • 2. […] Patches remained in place for 48 hours after the first application. • 4. Subjects were instructed not to remove the patches prior to their 48 hour scheduled visit. • 5. Thereafter, subjects were instructed to remove patches 24 hours after application for the remainder of the study. • 6. […] Prior to each reapplication, the test sites evaluated by trained laboratory personnel. • 8. Following a 10-14 day rest period a retest/challenge dose was applied once to a previously unexposed test site. Test sites were evaluated by trained laboratory personnel 48 and 96 hours after application. In the event of an adverse reaction, the area of erythema and edema were to be measured. Edema is estimated by the evaluation of the skin with respect to the contour of the unaffected normal skin. Subjects were instructed to report any delayed reactions that might occur after the final reading. […] Site discontinued • Dc: Subject discontinued voluntarily • DcI: Subject discontinued per Investigator

Consider `CC(C)C1CC[C@@H](C)C[C@H]1O` (single isomer, unassigned; (-)) [Menthol crystals, (−)-menthol], for which the “solubility in oil and alcohol” value in series [1] is “soluble in both oil and alcohol”.
For `CCCCCCCCCCCCOS(=O)(=O)[O-].[Na+]` [2.0% Sodium Lauryl Sulfate Solution, Sodium Lauryl Sulfate], in series [2] (Grade 1: erythema), the “subjects with a Grade 1 reaction” value was found to be 12 subjects. Besides, the “subjects with a Grade 2 reaction” value in series [2] (Grade 2: erythema and induration) was determined as 4 subjects. Besides, the “subjects with a Grade 3 reaction” value in series [2] (Grade 3: erythema, induration and vesicles) was 1 subjects. Moreover, in series [2] (Grade 4: erythema, induration and bullae), the “subjects with a Grade 4 reaction” value amounted to 3 subjects. In series [2] (delayed reaction), the “subjects with a delayed Grade 2 reaction” value is on record as 1 subjects.
